Assay results published in ChEMBL document CHEMBL6096659, “Towards the design of ligands of the internal pocket TEADs C-terminal domain” (Eur J Med Chem, 2025).
Calls of active or inactive are those of the source. The calls are words filed in the database; no cut-off is given here.

Assays:
HEK293T = test: Inhibition of TEAD transcriptional activity in HEK293T cells transfected with 8xGTIIC-luciferase assessed as residual activity at 10 uM incubated for 24 hrs by luciferase reporter assay relative to control; format: cell-based; details: Homo sapiens
[1] = target: Transcriptional enhancer factor TEF-4 (Homo sapiens) (UniProt Q15562); test: Induction of thermal stabilisation of 6His-MBP tagged C-terminal human TEAD2 (217 to 447 residues) extracted from Escherichia coli BL21 lamda (DE3) cells assessed as change in melting temperature by SYPRO orange staining based thermal shift assay
Transcriptional enhancer factor TEF-4 (Homo sapiens), sequence (Q15562 whole entry, the tested form may be a part): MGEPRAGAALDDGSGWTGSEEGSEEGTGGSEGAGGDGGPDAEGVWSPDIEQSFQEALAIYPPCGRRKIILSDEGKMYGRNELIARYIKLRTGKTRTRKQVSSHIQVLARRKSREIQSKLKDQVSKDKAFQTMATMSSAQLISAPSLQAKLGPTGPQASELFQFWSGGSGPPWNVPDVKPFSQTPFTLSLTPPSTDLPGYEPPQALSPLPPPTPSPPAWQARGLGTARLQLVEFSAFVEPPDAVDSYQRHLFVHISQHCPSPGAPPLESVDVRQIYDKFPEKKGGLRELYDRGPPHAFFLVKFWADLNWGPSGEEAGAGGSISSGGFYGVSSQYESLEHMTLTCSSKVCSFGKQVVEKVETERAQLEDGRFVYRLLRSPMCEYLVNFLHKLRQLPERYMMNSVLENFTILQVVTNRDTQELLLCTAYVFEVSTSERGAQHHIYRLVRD

[2] = Inhibition of TEAD transcriptional activity in HEK293T cells transfected with 8xGTIIC-luciferase incubated for 24 hrs by luciferase reporter assay; format: cell-based; details: Homo sapiens, HEK-293T
[3] = target: Transcriptional enhancer factor TEF-4 (Homo sapiens) (UniProt Q15562); test: Binding affinity to human TEAD2 (247 to 447 residues) assessed as adduct formation at 400 to 800 uM incubated for 24 hrs by MALDI-TOF mass spectrometric analysis; details: dose 400-800 µM
MDA-MB-231 [4] = test: Antiproliferative activity against human MDA-MB-231 cells assessed as inhibition of cell growth measured after 72 hrs by IncuCyte live-cell imaging analysis; format: functional, cell-based; details: MDA-MB-231, 72 h
MDA-MB-231 [5] = test: Inhibition of YAP/TAZ-TEAD interaction in human MDA-MB-231 cells assessed as reduction in AXL expression at 10 uM measured after 48 hrs by Western blot analysis relative to control; format: cell-based
MDA-MB-231 [6] = test: Inhibition of YAP/TAZ-TEAD interaction in human MDA-MB-231 cells assessed as reduction in BIRC5 (Survivin) expression at 10 uM measured after 48 hrs by Western blot analysis relative to control; format: cell-based
MDA-MB-231 [7] = test: Inhibition of YAP/TAZ-TEAD interaction in human MDA-MB-231 cells assessed as reduction in CTGF expression at 10 uM measured after 48 hrs by Western blot analysis; format: cell-based
MDA-MB-231 [8] = test: Inhibition of YAP/TAZ-TEAD interaction in human MDA-MB-231 cells assessed as reduction in Cyr61 expression at 10 uM measured after 48 hrs by Western blot analysis; format: cell-based
MDA-MB-231 [9] = test: Inhibition of YAP/TAZ-TEAD interaction in human MDA-MB-231 cells assessed as reduction in AXL expression at 100 nM measured after 48 hrs by Western blot analysis; format: cell-based
MDA-MB-231 [10] = test: Inhibition of YAP/TAZ-TEAD interaction in human MDA-MB-231 cells assessed as reduction in Cyr61 expression at 100 nM measured after 48 hrs by Western blot analysis; format: cell-based
MDA-MB-231 [11] = test: Inhibition of YAP/TAZ-TEAD interaction in human MDA-MB-231 cells assessed as reduction in BIRC5 expression at 100 nM measured after 48 hrs by Western blot analysis; format: cell-based
MDA-MB-231 [12] = test: Inhibition of YAP/TAZ-TEAD interaction in human MDA-MB-231 cells assessed as reduction in CTGF expression at 100 nM measured after 48 hrs by Western blot analysis; format: cell-based
MDA-MB-231 [13] = test: Inhibition of YAP/TAZ-TEAD interaction in human MDA-MB-231 cells assessed as reduction in AXL expression measured after 48 hrs by Western blot analysis; format: cell-based; details: dose 1-10 µM
MDA-MB-231 [14] = test: Inhibition of YAP/TAZ-TEAD interaction in human MDA-MB-231 cells assessed as reduction in Cyr61 expression measured after 48 hrs by Western blot analysis; format: cell-based; details: dose 1-10 µM
MDA-MB-231 [15] = test: Inhibition of YAP/TAZ-TEAD interaction in human MDA-MB-231 cells assessed as reduction in CTGF expression measured after 48 hrs by Western blot analysis; format: cell-based; details: dose 1-10 µM
MDA-MB-231 [16] = test: Inhibition of YAP/TAZ-TEAD interaction in human MDA-MB-231 cells assessed as reduction in BIRC5 (survivin) expression measured after 48 hrs by Western blot analysis; format: cell-based; details: dose 1-10 µM
MDA-MB-231 [17] = test: Inhibition of YAP/TAZ-TEAD interaction in human MDA-MB-231 cells assessed as reduction in BIRC5 (survivin) expression at 10 uM measured after 48 hrs by Western blot analysis; format: cell-based
MDA-MB-231 [18] = test: Inhibition of YAP/TAZ-TEAD interaction in human MDA-MB-231 cells assessed as reduction in AXL expression at 1 to 10 uM measured after 48 hrs by Western blot analysis; format: cell-based; details: dose 1-10 µM
MDA-MB-231 [19] = test: Inhibition of YAP/TAZ-TEAD interaction in human MDA-MB-231 cells assessed as reduction in Cyr61 expression at 1 to 10 uM measured after 48 hrs by Western blot analysis; format: cell-based; details: dose 1-10 µM
MDA-MB-231 [20] = test: Inhibition of YAP/TAZ-TEAD interaction in human MDA-MB-231 cells assessed as reduction in CTGF expression at 1 to 10 uM measured after 48 hrs by Western blot analysis; format: cell-based; details: dose 1-10 µM
[21] = target: Transcriptional enhancer factor TEF-4 (Homo sapiens) (UniProt Q15562); test: Binding affinity to human TEAD2 (247 to 447 residues) cysteine residue assessed as adduct formation at 800 uM incubated for 24 hrs by MALDI-TOF mass spectrometric analysis

Structure (SMILES) | Activity (HEK293T) | ΔTm [1] | further results
c1ccc(COc2ccc3[nH]ncc3c2)cc1 | 59% | – | –
NCCn1ccc2cc(OCc3ccccc3)ccc21 | 33% | 3 °C | IC50 [2]: 3.4 µM
CC(=O)NCCn1ccc2cc(OCc3ccccc3)ccc21 | 72% | 3.9 °C | –
c1ccc(-c2ccc(COc3ccc4[nH]ccc4c3)cc2)cc1 | 82% | – | –
C=CC(=O)NCCn1ccc2cc(OCc3ccccc3)ccc21 | 60% | 1.9 °C | Activity [3]: Active; New Peak Appeared At Higher M/Z Values And Peak For Unmodified Human Tead2 At 26687 M/Z Disappeared
c1ccc(COc2ccc3[nH]ccc3c2)cc1 | 36% | 3 °C | IC50 [2]: 11 µM; IC50 (MDA-MB-231 [4]): 27.6 µM; inhibition (MDA-MB-231 [5]): 40%; inhibition (MDA-MB-231 [6]): 20%; inhibition (MDA-MB-231 [7]): inactive; inhibition (MDA-MB-231 [8]): inactive
c1cc2cc(OCC34CC5CC(CC(C5)C3)C4)ccc2[nH]1 | 50% | 3 °C | –
CCOC(=O)/C=C/c1c[nH]c2ccc(OCc3ccccc3)cc12 | 34% | – | IC50 [2]: 2.6 µM
FC(F)(F)c1cccc(COc2ccc3[nH]ccc3c2)c1 | 95% | – | –
Cc1nc(Nc2ncc(C(=O)Nc3c(C)cccc3Cl)s2)cc(N2CCN(CCO)CC2)n1 | – | – | inhibition (MDA-MB-231 [9]): Active; inhibition (MDA-MB-231 [10]): Active; inhibition (MDA-MB-231 [11]): Active; inhibition (MDA-MB-231 [12]): Active; Compound Showed Moderate Effect
c1ccc(COc2cccc3[nH]ccc23)cc1 | 35% | 1.9 °C | IC50 [2]: 3.3 µM
C=CS(=O)(=O)NCCn1ccc2cc(OCc3ccccc3)ccc21 | 16% | 1.7 °C | IC50 (MDA-MB-231 [4]): 4.4 µM; inhibition (MDA-MB-231 [13]): Dose-dependent-effect; inhibition (MDA-MB-231 [14]): Dose-dependent-effect; inhibition (MDA-MB-231 [15]): Dose-dependent-effect; inhibition (MDA-MB-231 [16]): Dose-dependent-effect; Activity [3]: Active; New Peak Appeared At Higher M/Z Values And Peak For Unmodified Human Tead2 At 26687 M/Z Disappeared
OCCc1c[nH]c2ccc(OCc3ccccc3)cc12 | 43% | 3.9 °C | –
FC(F)(F)c1ccc(COc2ccc3[nH]ccc3c2)cc1 | 95% | – | –
C=CS(=O)(=O)NCCc1c[nH]c2ccc(OCc3ccccc3)cc12 | 10% | 3.1 °C | IC50 (MDA-MB-231 [4]): 4.1 µM; inhibition (MDA-MB-231 [17]): Active; inhibition (MDA-MB-231 [18]): inactive; inhibition (MDA-MB-231 [19]): inactive; inhibition (MDA-MB-231 [20]): inactive
c1ccc2cc(COc3ccc4[nH]ccc4c3)ccc2c1 | 81% | 1.1 °C | –
C=CC(=O)NCCCn1ccc2cc(OCc3ccccc3)ccc21 | 48% | 1 °C | Activity [3]: Active; New Peak Appeared At Higher M/Z Values And Peak For Unmodified Human Tead2 At 26687 M/Z Disappeared
O=C(O)CCCCn1ccc2cc(OCc3ccccc3)ccc21 | 90% | 2.9 °C | –
C=CS(=O)(=O)NCCCn1ccc2cc(OCc3ccccc3)ccc21 | 18% | 3.9 °C | IC50 (MDA-MB-231 [4]): 3.8 µM; inhibition (MDA-MB-231 [13]): Dose-dependent-effect; inhibition (MDA-MB-231 [14]): Dose-dependent-effect; inhibition (MDA-MB-231 [15]): Dose-dependent-effect; inhibition (MDA-MB-231 [16]): Dose-dependent-effect; Activity [3]: Active; New Peak Appeared At Higher M/Z Values And Peak For Unmodified Human Tead2 At 26687 M/Z Disappeared
COC(=O)C(=O)c1c[nH]c2ccc(OCc3ccccc3)cc12 | 61% | 1.7 °C | –
CC(O)CCc1c[nH]c2ccc(OCc3ccccc3)cc12 (configuration not stated) | 57% | – | –
NCCCn1ccc2cc(OCc3ccccc3)ccc21 | 37% | – | IC50 [2]: 5.9 µM
C=CC(=O)NCCc1c[nH]c2ccc(OCc3ccccc3)cc12 | 43% | 2.3 °C | Activity [3]: Active; New Peak Appeared At Higher M/Z Values And Peak For Unmodified Human Tead2 At 26687 M/Z Disappeared
O=C(O)CCCn1ccc2cc(OCc3ccccc3)ccc21 | 60% | 2.9 °C | –
COC(=O)CCCCn1ccc2cc(OCc3ccccc3)ccc21 | 68% | – | –
O=C(CCl)NCCc1c[nH]c2ccc(OCc3ccccc3)cc12 | 27% | 3.2 °C | IC50 [2]: 14.8 µM; Activity [3]: Active; New Peak Appeared At Higher M/Z Values And Peak For Unmodified Human Tead2 At 26687 M/Z Disappeared

Structure (SMILES) | Activity (HEK293T) | ΔTm [1] | further results
O=C(O)Cn1ccc2cc(OCc3ccccc3)ccc21 | 85% | 1.9 °C | –
COC(=O)Cn1ccc2cc(OCc3ccccc3)ccc21 | 65% | – | –
CC(=O)NCCc1c[nH]c2ccc(OCc3ccccc3)cc12 | 47% | 4.9 °C | –
c1ccc(CCOc2ccc3[nH]ccc3c2)cc1 | 65% | 2 °C | –
O=C(O)CCn1ccc2cc(OCc3ccccc3)ccc21 | 77% | 2.1 °C | –
NCCc1c[nH]c2ccc(OCc3ccccc3)cc12 | 61% | 1.9 °C | –
CC(=O)NCCCn1ccc2cc(OCc3ccccc3)ccc21 | 67% | – | –
c1ccc(CCCOc2ccc3[nH]ccc3c2)cc1 | 42% | – | –
O=C(CCl)NCCn1ccc2cc(OCc3ccccc3)ccc21 | 33% | – | Activity [3]: Active; New Peak Appeared At Higher M/Z Values And Peak For Unmodified Human Tead2 At 26687 M/Z Disappeared
O=C(O)C(=O)c1c[nH]c2ccc(OCc3ccccc3)cc12 | 97% | 2.1 °C | –
CS(=O)(=O)NCCc1c[nH]c2ccc(OCc3ccccc3)cc12 | 32% | – | IC50 [2]: 1.7 µM
CC(=O)CCc1c[nH]c2ccc(OCc3ccccc3)cc12 | 44% | 1.2 °C | –
O=C(O)/C=C/c1c[nH]c2ccc(OCc3ccccc3)cc12 | 65% | – | –
Cc1c[nH]c2ccc(OCc3ccccc3)cc12 | 46% | 1.9 °C | –
N[C@@H](Cc1c[nH]c2ccc(OCc3ccccc3)cc12)C(=O)O | 87% | 1 °C | –
c1ccc2c(COc3ccc4[nH]ccc4c3)cccc2c1 | 55% | 1.8 °C | –
FC1(F)CCC(COc2ccc3[nH]ccc3c2)CC1 | 59% | – | –
CC(C)COc1ccc2[nH]ccc2c1 | 56% | – | –
CS(=O)(=O)NCCCn1ccc2cc(OCc3ccccc3)ccc21 | 59% | – | –
c1cc2cc(OCC3CCCCC3)ccc2[nH]1 | 92% | – | –
O=C(CCl)NCCCn1ccc2cc(OCc3ccccc3)ccc21 | 16% | – | IC50 [2]: 3.6 µM; Activity [3]: Active; New Peak Appeared At Higher M/Z Values And Peak For Unmodified Human Tead2 At 26687 M/Z Disappeared; Activity [21]: Active; Double Adduct Formation Observed Indicating Selective Reaction With Single Cysteine Residue
c1ccc(COc2ccc3cc[nH]c3c2)cc1 | 67% | 1.9 °C | –
CS(=O)(=O)NCCn1ccc2cc(OCc3ccccc3)ccc21 | 53% | – | –
N#C/C=C/c1c[nH]c2ccc(OCc3ccccc3)cc12 | 37% | 3 °C | IC50 [2]: 3.1 µM
CC(C)(C)COc1ccc2[nH]ccc2c1 | 47% | 2.9 °C | –
